Experimental data: article PMC9005681, “Use of AD Informer Set compounds to explore validity of novel targets in Alzheimer's disease pathology” (Alzheimer's & Dementia : Translational Research & Clinical …, 2022)
Values joined by “and” are separate entries in the source; they are usually repeats but may differ in a detail not shown here. Identical values can stand only once.

Assays:
Assay in all cases: PDSP GPCR panel primary binding assays at 10 μM
[1] = target: T1, cloned human or rodent CNS receptors, channels, and transporters (PDSP panel) (Homo sapiens, UniProt P11229); conditions: M1, primary assay
T1 construct: expressed in transfected cells
T1 sequence (P11229 1-460): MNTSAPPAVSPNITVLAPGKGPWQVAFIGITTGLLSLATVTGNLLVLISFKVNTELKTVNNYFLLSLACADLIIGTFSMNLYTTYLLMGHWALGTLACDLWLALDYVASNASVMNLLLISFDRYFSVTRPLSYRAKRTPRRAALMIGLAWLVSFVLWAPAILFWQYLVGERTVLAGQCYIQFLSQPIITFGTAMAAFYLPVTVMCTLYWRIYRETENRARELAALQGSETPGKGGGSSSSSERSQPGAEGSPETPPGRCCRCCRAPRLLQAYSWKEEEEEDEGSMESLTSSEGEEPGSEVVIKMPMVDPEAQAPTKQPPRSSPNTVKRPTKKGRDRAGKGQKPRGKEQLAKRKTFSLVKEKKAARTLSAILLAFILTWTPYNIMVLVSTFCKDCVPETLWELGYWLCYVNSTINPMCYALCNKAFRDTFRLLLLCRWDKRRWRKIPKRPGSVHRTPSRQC
How it was run: (§1)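 PDSP panel of 46–47 cloned human or rodent CNS receptors, channels and transporters; radioligand displacement by compound at 10 μM, in quadruplicate. Where average displacement exceeded 50%, secondary binding followed as 11-point dose-response in triplicate (none for H3, PBR or GABAA).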

[2] = target: T2, cloned human or rodent CNS receptors, channels, and transporters (PDSP panel) (Homo sapiens, UniProt P47898); conditions: 5-HT5A, primary assay
T2 construct: expressed in transfected cells
How it was run: as §1

[3] = target: T3, cloned human or rodent CNS receptors, channels, and transporters (PDSP panel) (Homo sapiens, UniProt P21728); conditions: D1, primary assay
T3 construct: expressed in transfected cells
How it was run: as §1

[4] = target: T4, cloned human or rodent CNS receptors, channels, and transporters (PDSP panel) (Homo sapiens, UniProt P23975); conditions: NET, primary assay
T4 construct: expressed in transfected cells
How it was run: as §1

[5] = target: T5, cloned human or rodent CNS receptors, channels, and transporters (PDSP panel) (Homo sapiens, UniProt P25100); conditions: Alpha1D, primary assay
T5 construct: expressed in transfected cells
T5 sequence (P25100 1-572): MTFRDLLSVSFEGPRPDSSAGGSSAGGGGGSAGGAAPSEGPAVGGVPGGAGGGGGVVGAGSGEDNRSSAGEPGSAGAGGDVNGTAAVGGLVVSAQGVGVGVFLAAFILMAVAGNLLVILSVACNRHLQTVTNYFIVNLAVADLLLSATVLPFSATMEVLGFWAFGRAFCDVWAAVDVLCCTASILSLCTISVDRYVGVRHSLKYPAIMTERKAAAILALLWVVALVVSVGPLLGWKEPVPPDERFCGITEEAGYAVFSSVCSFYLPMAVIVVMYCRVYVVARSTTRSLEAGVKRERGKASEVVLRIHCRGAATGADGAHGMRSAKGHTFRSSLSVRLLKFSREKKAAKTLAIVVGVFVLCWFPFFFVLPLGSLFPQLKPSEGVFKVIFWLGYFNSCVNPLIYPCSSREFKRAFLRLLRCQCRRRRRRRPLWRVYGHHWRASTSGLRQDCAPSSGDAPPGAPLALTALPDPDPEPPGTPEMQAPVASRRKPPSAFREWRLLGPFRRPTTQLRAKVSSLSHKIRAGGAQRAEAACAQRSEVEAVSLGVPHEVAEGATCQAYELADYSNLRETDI
How it was run: as §1

[6] = target: T6, cloned human or rodent CNS receptors, channels, and transporters (PDSP panel) (Homo sapiens, UniProt P35368); conditions: Alpha1B, primary assay
T6 construct: expressed in transfected cells
T6 sequence (P35368 1-520): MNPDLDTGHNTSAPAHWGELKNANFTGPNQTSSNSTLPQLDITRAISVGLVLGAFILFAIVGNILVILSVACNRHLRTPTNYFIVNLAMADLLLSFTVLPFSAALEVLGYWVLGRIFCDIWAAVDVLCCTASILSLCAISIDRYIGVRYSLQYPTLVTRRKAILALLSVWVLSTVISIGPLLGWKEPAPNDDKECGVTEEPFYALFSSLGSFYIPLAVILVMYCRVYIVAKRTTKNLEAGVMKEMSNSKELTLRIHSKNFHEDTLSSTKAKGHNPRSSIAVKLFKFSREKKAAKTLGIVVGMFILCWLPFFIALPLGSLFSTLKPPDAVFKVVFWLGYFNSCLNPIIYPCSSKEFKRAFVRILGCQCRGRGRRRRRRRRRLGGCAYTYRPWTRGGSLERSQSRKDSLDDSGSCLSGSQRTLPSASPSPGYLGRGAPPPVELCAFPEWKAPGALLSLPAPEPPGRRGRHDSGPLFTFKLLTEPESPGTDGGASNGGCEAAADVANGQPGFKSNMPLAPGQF
How it was run: as §1

[7] = target: T7, cloned human or rodent CNS receptors, channels, and transporters (PDSP panel) (Homo sapiens, UniProt P28223); conditions: 5-HT2A, primary assay
T7 construct: expressed in transfected cells
How it was run: as §1

T4 sequence (P23975 whole entry): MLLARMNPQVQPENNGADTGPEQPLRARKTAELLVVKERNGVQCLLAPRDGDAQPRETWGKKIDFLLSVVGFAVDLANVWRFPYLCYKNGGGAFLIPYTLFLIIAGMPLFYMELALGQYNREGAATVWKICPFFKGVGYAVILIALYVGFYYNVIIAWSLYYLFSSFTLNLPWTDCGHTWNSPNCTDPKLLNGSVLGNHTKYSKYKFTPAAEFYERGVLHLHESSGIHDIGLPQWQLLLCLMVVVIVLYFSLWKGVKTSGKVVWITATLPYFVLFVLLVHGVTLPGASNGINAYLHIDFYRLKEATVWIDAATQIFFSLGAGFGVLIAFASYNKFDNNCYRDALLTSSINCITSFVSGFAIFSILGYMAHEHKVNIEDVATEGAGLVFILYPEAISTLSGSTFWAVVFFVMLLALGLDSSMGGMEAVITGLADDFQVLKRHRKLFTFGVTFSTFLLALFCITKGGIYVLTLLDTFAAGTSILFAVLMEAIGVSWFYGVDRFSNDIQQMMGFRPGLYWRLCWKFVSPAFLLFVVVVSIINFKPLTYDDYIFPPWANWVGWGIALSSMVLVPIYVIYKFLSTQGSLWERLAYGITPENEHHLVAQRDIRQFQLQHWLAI
T2 sequence (P47898 whole entry): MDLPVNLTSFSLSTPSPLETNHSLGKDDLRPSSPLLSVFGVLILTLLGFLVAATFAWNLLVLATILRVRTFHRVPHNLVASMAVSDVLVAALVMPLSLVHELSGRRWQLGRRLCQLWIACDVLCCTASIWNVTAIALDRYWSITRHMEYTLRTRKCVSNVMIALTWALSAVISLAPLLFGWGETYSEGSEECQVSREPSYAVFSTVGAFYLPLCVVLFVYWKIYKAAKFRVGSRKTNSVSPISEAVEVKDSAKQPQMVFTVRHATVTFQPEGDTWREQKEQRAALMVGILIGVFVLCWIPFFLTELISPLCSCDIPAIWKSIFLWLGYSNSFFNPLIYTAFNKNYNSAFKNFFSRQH
T7 sequence (P28223 whole entry): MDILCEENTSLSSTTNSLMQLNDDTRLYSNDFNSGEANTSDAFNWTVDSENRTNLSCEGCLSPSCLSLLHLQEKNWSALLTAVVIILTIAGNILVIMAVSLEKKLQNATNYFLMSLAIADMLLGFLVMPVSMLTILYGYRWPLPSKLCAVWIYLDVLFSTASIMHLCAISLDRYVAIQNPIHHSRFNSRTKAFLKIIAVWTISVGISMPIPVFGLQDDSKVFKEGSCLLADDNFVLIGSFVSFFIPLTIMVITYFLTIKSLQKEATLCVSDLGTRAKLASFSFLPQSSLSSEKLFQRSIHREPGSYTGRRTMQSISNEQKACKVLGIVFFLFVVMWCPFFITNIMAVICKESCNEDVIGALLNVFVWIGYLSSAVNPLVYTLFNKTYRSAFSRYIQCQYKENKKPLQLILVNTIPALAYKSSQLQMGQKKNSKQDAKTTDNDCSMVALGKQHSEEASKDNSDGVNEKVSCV
T3 sequence (P21728 whole entry): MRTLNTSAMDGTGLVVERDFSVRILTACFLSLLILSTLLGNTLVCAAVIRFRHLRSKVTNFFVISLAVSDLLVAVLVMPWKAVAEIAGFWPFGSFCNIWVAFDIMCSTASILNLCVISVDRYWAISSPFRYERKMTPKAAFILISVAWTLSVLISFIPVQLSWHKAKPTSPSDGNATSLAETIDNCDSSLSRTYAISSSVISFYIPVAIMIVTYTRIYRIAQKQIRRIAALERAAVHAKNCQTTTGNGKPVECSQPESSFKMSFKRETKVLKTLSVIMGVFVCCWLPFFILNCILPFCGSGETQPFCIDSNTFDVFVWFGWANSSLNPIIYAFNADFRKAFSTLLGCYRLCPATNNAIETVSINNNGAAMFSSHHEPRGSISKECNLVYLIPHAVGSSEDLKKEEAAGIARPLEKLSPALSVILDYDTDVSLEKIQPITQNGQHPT

For MDL 28170 [UNC10302675A], which Mean % ([1]; mean inhibition) is on record?
Its Mean % is -11.2%.

What about the “Inhibition 1” value ([1]; replicate 1) of the same substance?
The value was -2.73%.

And the “Inhibition 2” value ([1]; replicate 2)?
Its value is -6.87%.

And the “Inhibition 3” value ([1]; replicate 3)?
The value was -20.6%.

And the “Inhibition 4” value ([1]; replicate 4)?
The value was -14.58%.

And the Mean % ([2]; mean inhibition)?
Its Mean % is -1.67%.

And the “Inhibition 1” value ([2]; replicate 1)?
The value was -0.61%.

What about the “Inhibition 2” value ([2]; replicate 2) of the same substance?
The value was -2.73%.

What about the “Inhibition 3” value ([2]; replicate 3) of the same substance?
The value was -12.06%.

What about the “Inhibition 4” value ([2]; replicate 4) of the same substance?
Its value is 8.72%.

What about the Mean % ([3]; mean inhibition) of the same substance?
Its Mean % is -0.08%.

And the “Inhibition 1” value ([3]; replicate 1)?
The value was 13.68%.

And the “Inhibition 2” value ([3]; replicate 2)?
The value was 11.74%.

What about the “Inhibition 3” value ([3]; replicate 3) of the same substance?
The value was -15.62%.

And the “Inhibition 4” value ([3]; replicate 4)?
Its value is -10.12%.

And the Mean % ([4]; mean inhibition)?
Its Mean % is 1.5% and 5.58%.

What about the “Inhibition 1” value ([4]; replicate 1) of the same substance?
The value was 1.64% and 23.85%.

And the “Inhibition 2” value ([4]; replicate 2)?
The value was -18.73% and 10.38%.

And the “Inhibition 3” value ([4]; replicate 3)?
Its value is -4.59% and 3.46%.

And the “Inhibition 4” value ([4]; replicate 4)?
Its value is 27.68% and -15.39%.

What about the Mean % ([5]; mean inhibition) of the same substance?
The Mean % was 0.92%.

What about the “Inhibition 1” value ([5]; replicate 1) of the same substance?
Its value is 9.77%.

What about the “Inhibition 2” value ([5]; replicate 2) of the same substance?
The value was 7.35%.

What about the “Inhibition 3” value ([5]; replicate 3) of the same substance?
The value was -4.01%.

What about the “Inhibition 4” value ([5]; replicate 4) of the same substance?
Its value is -9.41%.

And the Mean % ([6]; mean inhibition)?
Its Mean % is -5.99%.

And the “Inhibition 1” value ([6]; replicate 1)?
Its value is -0.72%.

What about the “Inhibition 2” value ([6]; replicate 2) of the same substance?
Its value is -4.38%.

And the “Inhibition 3” value ([6]; replicate 3)?
The value was -14.01%.

What about the “Inhibition 4” value ([6]; replicate 4) of the same substance?
Its value is -4.84%.

What about the Mean % ([7]; mean inhibition) of the same substance?
The Mean % was -2.25%.

What about the “Inhibition 1” value ([7]; replicate 1) of the same substance?
Its value is 10.17%.

What about the “Inhibition 2” value ([7]; replicate 2) of the same substance?
Its value is -7.92%.

What about the “Inhibition 3” value ([7]; replicate 3) of the same substance?
Its value is -7.75%.

And the “Inhibition 4” value ([7]; replicate 4)?
Its value is -3.48%.
